Results taken from patent US20250186386A1, “METHODS OF REDUCING THE NEED FOR PERIPHERAL ARTERIAL REVASCULARIZATION IN A STATIN-TREATED SUBJECT” (AMARIN PHARMACEUTICALS IRELAND LIMITED, priority 2018, published 2025).
Read-outs that look alike come from different tables or passages of the source.

Assays:
[1] = tested on: hypertriglyceridemic patients with cardiovascular disease or at high risk for cardiovascular disease, on statin therapy; format: in vivo, human
Text: The following study, also referred to as the REDUCE-IT clinical trial, was a large cardiovascular (CV) outcome trial designed to assess CV risk reduction benefit of AMR101 treatment (commercially known as VASCEPA®) versus placebo on the 5-point primary composite endpoint: CV death, non-fatal stroke, non-fatal myocardial infarction (MI), coronary revascularizations, or unstable angina requiring hospitalization.
A multi-center, prospective, randomized, double-blind, placebo-controlled, parallel-group study was performed to evaluate the effect of AMR101 (4 g per day) on cardiovascular health and mortality in hypertriglyceridemic patients with cardiovascular disease or at high risk for cardiovascular disease. The intended expanded indication of the study was treatment with AMR101 as an add-on to statin therapy to reduce the risk of cardiovascular events in patients with clinical cardiovascular disease or with multiple risk factors for cardiovascular disease.
The primary objective of this study was, in patients at LDL-C goal while on statin therapy, with established cardiovascular disease (CVD) or at high risk for CVD, and hypertriglyceridemia (e.g., fasting triglycerides (TG)≥200 mg/dL and <500 mg/dL), to evaluate the effect of AMR101 4 g daily on time from randomization to first occurrence of any component of the composite of the following major CV events: CV death; nonfatal MI; (including silent MI; electrocardiograms (ECGs) were performed annually for the detection of silent MIs); nonfatal stroke; coronary revascularization; and unstable angina determined to be caused by myocardial ischemia by invasive/non-invasive testing and requiring emergent hospitalization.
The key secondary objective of this study was to evaluate the effect of AMR101 4 g daily on the time from randomization to the first occurrence of the composite of following major CV events: CV death, nonfatal MI (including silent MI), and nonfatal stroke.
Other secondary objectives for this study were to evaluate the effect of therapy on time from randomization to the first occurrence of the following individual or composite endpoints: composite of CV death or nonfatal MI (including silent MI); fatal or nonfatal MI (including silent MI); non-elective coronary revascularization represented as the composite of emergent or urgent classifications; CV death; unstable angina determined to be caused by myocardial ischemia by invasive/non-invasive testing and requiring emergent hospitalization; fatal or nonfatal stroke; composite of total mortality, nonfatal MI (including silent MI), or nonfatal stroke; and total mortality.
Primary Efficacy Endpoint: The primary efficacy endpoint was time from randomization to the first occurrence of the composite of the following clinical events: CV death; nonfatal MI (including silent MI; ECGs were performed annually for the detection of silent MIs); nonfatal stroke; coronary revascularization; and unstable angina determined to be caused by myocardial ischemia by invasive/non-invasive testing and requiring emergent hospitalization. The first occurrence of any of these major adverse vascular events during the follow-up period of the study were included in the incidence.
Secondary Efficacy Endpoints: The key secondary efficacy endpoint was the time from randomization to the first occurrence of the composite of CV death, nonfatal MI (including silent MI), or nonfatal stroke. […]

[2] = tested on: Lipid, lipoprotein, and inflammatory markers (TG, non-HDL-C, LDL-C, HDL-C, Apo B, hsCRP); test: REDUCE-IT: fasting lipid profile and biomarker assays (lipid, lipoprotein, and inflammatory markers) over time; format: in vivo, human
Protocol: Fasting Lipid Profile: The fasting lipid panel included: TG, TC, LDL-C, HDL-C, non-HDL-C, and VLDL-C. At all visits, LDL-C was calculated using the Friedewald equation. At Visit 1 and Visit 1.1 direct LDL-C were used if at the same visit TG>400 mg/dL (4.52 mmol/L). These LDL-C values were used for the evaluation of the LDL-C inclusion criterion (LDL-C qualifying measurements for randomization) and for the assessment of changes in the statin therapy when LDL-C was not at goal. […] In addition, irrespective of the TG levels, at Visit 2 (0 Months of Follow-up, baseline) and at Visit 4 (12 Months of Follow-up), LDL-C were measured by preparative ultracentrifugation. These preparative ultracentrifugation LDL-C measurements were used in the statistical analysis including the calculation of the percent change from baseline (1 year versus baseline). Hopkins LDL-C was calculated for each visit.
Biomarkers Assays: The biomarker assays included: hsCRP, Apo B and hsTnT.
The fasting lipid panel was tested at Screening (Visit 1 or Visit 1.1), Randomization visit (Visit 2; Day 0), Visit 3 (Day 120; ˜4 Months) and all other follow-up visits including the last visit. For change from baseline to 1 year preparative ultracentrifugation measurements for LDL-C were analyzed, unless this value was missing. If the LDL-C preparative ultracentrifugation values were missing, then another LDL-C value was used, with prioritization of values obtained from LDL-C Direct measurements, followed by LDL-C derived by the Friedewald calculation (only for subjects with TG<400 mg/dL), and finally LDL-C derived using the calculation published by Hopkins University investigators (Martin S S, Blaha M J, Elshazly M B, et al. Comparison of a novel method vs the Friedewald equation for estimating low-density lipoprotein cholesterol levels from the standard lipid profile. JAMA. 2013; 310:2061-8). In addition, change from baseline to day 120 in LDL-C utilizing Friedewald's and Hopkins methods was analyzed, using the arithmetic mean of LDL-C obtained at Visit 2 (Day 0) and the preceding Visit 1 (or Visit 1.1). If one of these values was missing, the single available LDL-C value was used. LDL-C according to Hopkins was calculated at each visit.
The randomization visit was considered Baseline. If a baseline value was not available from the randomization visit, then the latest screening value was used. For measurements of lipids, lipoproteins and inflammatory markers, the change and the percent change were summarized at each visit. Since these biomarkers are typically not normally distributed, the Wilcoxon rank-sum test was used for treatment comparisons of the percent change from baseline, and medians and quartiles were provided for each treatment group. The medians of the differences between the treatment groups and 95% CIs were estimated with the Hodges-Lehmann method. In addition, shift-tables were generated as appropriate.

[3] = REDUCE-IT: treatment-emergent adverse events of the safety population
Protocol: Specification of Variables and Procedures: Safety assessments included adverse events, clinical laboratory measurements (chemistry, hematology), 12-lead ECGs, vital signs (systolic and diastolic blood pressure, heart rate, respiratory rate, and body temperature), weight, waist circumference, and physical examinations as per Study Procedures in Table 1. […] All laboratory test results were evaluated by the investigator as to their clinical significance. Any observations at physical examinations or laboratory values considered by the investigator to be clinically significant were considered an adverse event.
An adverse event can therefore be any unfavorable and/or unintended sign (including an abnormal laboratory finding), symptom, or disease temporally associated with the use of an investigational medication product, whether or not related to the investigational medication product. All adverse events, including observed or volunteered problems, complaints, or symptoms, were recorded on the appropriate CRF. Each adverse event was evaluated for duration, intensity, and causal relationship with the study medication or other factors.
Serious Adverse Events: A serious adverse event (SAE) is defined as an adverse event that meets any of the following criteria: • Results in death; • Is life-threatening—The term “life-threatening” in the definition of “serious” refers to an event in which the patient was at risk of death at the time of the event. […] Important medical events that may not result in death, be life threatening, or require hospitalization were considered an SAE when, based upon appropriate medical judgment, they may have jeopardized the patient and may have required medical or surgical intervention to prevent one of the outcomes listed above.
(§1) Analysis of Safety: All analyses of safety were conducted on the safety population, which was defined as all randomized patients. The safety assessment was based on the frequency of adverse events, physical exams, vital signs and safety laboratory tests. AEs with new onset during the study between the initiation of study drug and 30 days after the last dose of study drug for each patient was considered treatment-emergent (TEAEs). This included any AE with onset prior to initiation of study drug and increased severity after the treatment initiation.
This included overall incidence rates (regardless of severity and relationship to study drug), and incidence rates for moderate or severe adverse events. A summary of SAEs and adverse events leading to early discontinuation (for 30 days) were presented through data listings. Patients who restarted study drug were included in the summary of AEs leading to discontinuation. Safety laboratory tests and vital signs were summarized by post-treatment change from baseline for each of the parameters using descriptive statistics by treatment group. Those patients with significant laboratory abnormalities were identified in data listings. Additional safety parameters were summarized in data listings.
In addition to the treatment-emergent adverse events analyses, analyses on all AEs (serious and non-serious) and all serious AEs were performed.

[4] = REDUCE-IT: serious bleeding treatment-emergent adverse events (adverse events of special interest); format: in vivo, human; details: Safety population
Protocol: Adverse Events of Special Interest: Bleeding-related adverse events, glucose control (fasting blood glucose and HbA1c), and indicators of hepatic disorders (e.g., ALT or AST increases >3×ULN, total bilirubin increases of ≥2×ULN) were summarized separately and compared between treatment groups.
as §1
This included overall incidence rates (regardless of severity and relationship to study drug), and incidence rates for moderate or severe adverse events. A summary of SAEs and adverse events leading to early discontinuation (for 30 days) were presented through data listings. Patients who restarted study drug were included in the summary of AEs leading to discontinuation. Safety laboratory tests and vital signs were summarized by post-treatment change from baseline for each of the parameters using descriptive statistics by treatment group. […]

CC/C=C\C/C=C\C/C=C\C/C=C\C/C=C\CCCC(=O)OCC [AMR101, icosapent ethyl]
Key secondary composite endpoint absolute between-group difference in the rate of the endpoint ([1]; 2 g twice daily vs placebo): 3.6 percentage points
Primary composite endpoint absolute between-group difference in the rate of the endpoint ([1]; 2 g twice daily vs placebo): 4.8 percentage points
Cardiovascular death, % of patients ([1]; 4 g daily, ITT): 4.3%
Total mortality, % of patients ([1]; 4 g daily, ITT): 6.7%
Amputation for PVD (%) ([1]; ITT): (0.5%)
Cardiac Arrest (%) ([1]; ITT): (0.5%)
Cardiac Arrhythmias Requiring Hospitalization of ≥24 Hours (%) ([1]; ITT): (4.6%)
Carotid Revascularization (%) ([1]; ITT): (0.8%)
Coronary Revascularization (%) ([1]; ITT): (9.2%)
Elective Revascularization (%) ([1]; ITT): (4.7%)
Emergent Revascularization (%) ([1]; ITT): (1.0%)
Hemorrhagic Stroke (%) ([1]; ITT): 0.3%
Ischemic Stroke (%) ([1]; ITT): (2.0%)
New Heart Failure (%) ([1]; ITT): 4.1%
New Heart Failure Requiring Hospitalization (%) ([1]; ITT): (3.4%)
Salvage Revascularization (%) ([1]; ITT): (0.0%)
Sudden Cardiac Death (%) ([1]; ITT): (1.5%)
Transient Ischemic Attack (%) ([1]; ITT): (1.6%)
Urgent Revascularization (%) ([1]; ITT): (4.4%)
Hemorrhagic Stroke (%) ([1]; ITT, listed as Icosapent Ethyl): (0.3%)
New Heart Failure (%) ([1]; ITT, listed as Icosapent Ethyl): (4.1%)
Atrial fibrillation or flutter requiring hospitalization (adjudicated tertiary endpoint), % of patients ([1]; human, in vivo): 3.1%
New Onset of Diabetes (%) ([1]; patients with diabetes at baseline excluded): (3.8%)
Composite of cardiovascular death or nonfatal myocardial infarction RRR ([1]; vs placebo, 4 g per day): 25%
Composite of total mortality, nonfatal myocardial infarction, or nonfatal stroke reduction (RRR) ([1]; vs placebo, 4 g per day): 23%
Key secondary composite endpoint relative risk reduction (RRR) ([1]; vs placebo, 4 g per day): 26%
Primary composite endpoint relative risk reduction (RRR) ([1]; vs placebo, 4 g per day): 25%
Reduction in heart attack ([1]; vs placebo, 4 g per day): 31%
Total mortality reduction (RRR) ([1]; vs placebo, 4 g per day): 13%
Total mortality HR ([1]; vs placebo, ITT): 0.87
Primary composite endpoint number needed to treat (NNT) ([1]; vs placebo, median follow up 4.9 years): 21
HDL-C Median Year 1 ([2]; Year 1, Table 18): 39.0 mg/dL
LDL-C Median Year 1 ([2]; Year 1, Table 18): 77.0 mg/dL
Non-HDL-C Median Year 1 ([2]; Year 1, Table 18): 113.0 mg/dL
Triglycerides Median Year 1 ([2]; Year 1, Table 18): 175.0 mg/dL
Triglycerides: median reduction from baseline greater than in the placebo group (Hodges-Lehmann) ([2]; baseline to one year, vs placebo): 19.7%
HDL-C Median Between Group Difference at Year 1, % Change from Baseline ([2]; vs placebo, Table 18): −6.3%
HDL-C Median Between Group Difference at Year 1, Absolute Change from Baseline ([2]; vs placebo, Table 18): -2.5 mg/dL
LDL-C Median Between Group Difference at Year 1, % Change from Baseline ([2]; vs placebo, Table 18): −6.6%
LDL-C Median Between Group Difference at Year 1, Absolute Change from Baseline ([2]; vs placebo, Table 18): -5.0 mg/dL
Non-HDL-C Median Between Group Difference at Year 1, Absolute Change from Baseline ([2]; vs placebo, Table 18): -15.5 mg/dL
Triglycerides Median Between Group Difference at Year 1, % Change from Baseline ([2]; vs placebo, Table 18): −19.7%
Triglycerides Median Between Group Difference at Year 1, Absolute Change from Baseline ([2]; vs placebo, Table 18): -44.5 mg/dL
Pneumonia (serious adverse event), rate ([3]; Safety population): 2.6%
Rate of anemia (adverse event) ([3]; Safety population): 4.7%
Rate of atrial fibrillation (adverse event) ([3]; Safety population): 5.3%
Rate of diarrhea (adverse event) ([3]; Safety population): 9%
Rate of gastrointestinal adverse events ([3]; Safety population): 33.0%
Rate of peripheral edema (adverse event) ([3]; Safety population): 6.5%
Serious TEAE Leading to Death, % ([3]; […]): (2.3%)
Serious TEAE, % ([3]; […]): (30.6%)
Subjects with at Least One TEAE, % ([3]; […]): (81.8%)
Serious gastrointestinal bleeding, rate [4]: 1.5%
